Results on seven compounds are retold here after publication PMC10648349, “Aromatic Diboronic Acids as Effective KPC/AmpC Inhibitors” (Molecules, 2023).

Values after ≈ are worked out from the molar mass of the structure shown.

For data set [1], the system named is E. coli 76 KPC-2-positive. As to the kind of experiment: checkerboard microdilution, antibiotic plus tested agent. Conditions: Escherichia coli; read-out: MIC of imipenem alone. The data set is classed as cell-based, Escherichia coli. Here is the method:
(§1) To examine the ability of tested agents to inhibit various carbapenemases and AmpC-enzymes, their synergy with antibiotics against β-lactamase-producing strains was assessed by checkerboard microdilution assay, with slight modification. Checkerboards were prepared in microtiter plates, with seven two-fold dilutions of β-lactams (1–64 mg/L) in the rows and three two-fold dilutions of tested agents and PBA (4–16 mg/L) in the columns. Tested agents’ concentrations were limited to the concentrations at which the newest commercially available BLIs (vaborbactam, relebactam, and avibactam) are used in susceptibility testing. Plates were inoculated and incubated as in the MIC microdilution assay. Parallel, MICs of tested agents and PBA alone were determined by the microdilution assay. Following the incubation, antibiotic MICs in the presence of each agent’s concentration were determined. Moreover, for the first well without growth found in each checkerboard row and column along the growth/non-growth interface, the fractional inhibitory concentration index (FICI) was calculated using the formula below:FICI = [(MIC of antibiotic in combination)/(MIC of antibiotic alone)] + [(MIC of the tested agent in combination)/(MIC of tested agent alone)].
(§2) For calculations, all off-scale MICs were converted to the next-highest doubling concentration. Subsequently, both the average and the lowest FICI were interpreted. The interpretation was as follows: FICI ≤ 0.5, synergy; 0.5 < FICI ≤ 4, indifference and FICI > 4, antagonism. Primarily, examined combinations consisted of meropenem (Pol-Aura, Morag, Poland) plus tested agents against carbapenemases-producing strains and ceftazidime (Pol-Aura, Morag, Poland) plus tested agents against AmpC-producing strains. For agents that reduced meropenem MIC at least 4-fold for at least two tested strains, similar assays were performed with imipenem (Pol-Aura, Morag, Poland) and ertapenem (Pol-Aura, Morag, Poland).

Data set [2] deals with K. pneumoniae 81 KPC-3-positive. The description is as above. The following applies: Klebsiella pneumoniae; read-out: MIC of imipenem alone. The data set is classed as cell-based, Klebsiella pneumoniae. As to the method: as §1, §2
Data set [3] deals with K. pneumoniae 83 KPC-3-positive, CTX-M-3-positive. The data set is described as above. It counts as cell-based, Klebsiella pneumoniae. The following applies: Klebsiella pneumoniae; read-out: MIC of imipenem alone. Here is the method:
as §1, §2

In data set [4] the test system is K. pneumoniae ATCC BAA-1705 KPC-2-positive. The description is as above. It counts as cell-based, Klebsiella pneumoniae. Conditions: Klebsiella pneumoniae, ATCCBAA1705; read-out: MIC of imipenem alone. Here is the method:
as §1, §2

Another data set concerns E. faecalis ATCC 29212. As to the kind of experiment: direct antimicrobial activity (disc-diffusion, MIC, MBC). It counts as cell-based. Conditions: Enterococcus faecalis, ATCC29212. Here is the method:
(§3) Direct antimicrobial activity against Gram-negative and Gram-positive bacterial strains, as well as against yeast, was examined as previously described by the disc-diffusion test, the MIC determination assay, the MBC (for bacteria), and the MFC (for yeasts) determination tests. All the above-mentioned tests were performed according to EUCAST [71, 72] and CLSI [73, 74, 75, 76, 77] recommendations. The following reference agents were used: nitrofurantoin (for Gram-negative rods), linezolid (for Gram-positive bacteria), and fluconazole (in the case of fungi). The new aromatic diboronic acids were dissolved in DMSO (Sigma, St. Louis, MO, USA). In the disc-diffusion test, the concentration of new agents was 0.4 mg per disc.

The next data set deals with E. faecium ATCC 6057. The data set is described as above. It counts as cell-based. The following applies: Enterococcus faecium, ATCC6057. Here is the method: as §3
The subject of data set [5] is S. aureus ATCC 43300 MRSA. The data set is described as above. It counts as cell-based. Conditions: Staphylococcus aureus. As to the method:
as §3

The subject of a further data set is S. aureus ATCC 6538P. The description is as above. The data set is classed as cell-based. Conditions: Staphylococcus aureus, ATCC6538P. Here is the method: as §3
Data set [6] has as its system S. epidermidis ATCC 12228. Described as above. It counts as cell-based. Conditions: Staphylococcus epidermidis, ATCC12228. Here is the method: as §3
In data set [7] the test system is C. parapsilosis ATCC 22019. The data set can be described thus: antifungal activity (disc-diffusion, MIC, MFC). It counts as cell-based, Candida parapsilosis. The following applies: Lodderomyces parapsilosis, ATCC22019; for MIC: fluconazole by Etest. As to the method: as §3
The test system of data set [8] is C. guilliermondii IBA 155. As to the kind of experiment: antifungal activity (disc-diffusion, MIC, MFC). Conditions: Meyerozyma guilliermondii, IBA155; for MIC: fluconazole by Etest. It counts as cell-based, Candida guilliermondii. As to the method: as §3
The subject of a further data set is C. krusei ATCC 6258. The data set can be described thus: antifungal activity (disc-diffusion, MIC, MFC). It counts as cell-based, Candida krusei. Conditions: Pichia kudriavzevii, ATCC6258; for MIC: fluconazole by Etest. As to the method: as §3
The test system of a further data set is C. albicans ATCC 90028. The data set can be described thus: antifungal activity (disc-diffusion, MIC, MFC). The data set is classed as cell-based. Conditions: Candida albicans, ATCC90028; for MIC: fluconazole by Etest. Here is the method: as §3
The test system of the next data set is C. tropicalis ATCC 750. As to the kind of experiment: antifungal activity (disc-diffusion, MIC, MFC). The data set is classed as cell-based. Conditions: Candida tropicalis, ATCC750; for MIC: fluconazole by Etest. As to the method: as §3
Another data set relates to C. tropicalis IBA 171. The data set can be described thus: antifungal activity (disc-diffusion, MIC, MFC). The data set is classed as cell-based. Conditions: Candida tropicalis, IBA171; for MIC: fluconazole by Etest. Here is the method:
as §3

In another data set the test system is S. cerevisiae ATCC 9763. As to the kind of experiment: antifungal activity (disc-diffusion, MIC, MFC). The data set is classed as cell-based. The following applies: Saccharomyces cerevisiae, ATCC9763; for MIC: fluconazole by Etest. Here is the method:
as §3

A short description of data set [9]: MTT-based viability assay. Conditions: human, MRC-5 human fibroblasts, 72 h, read-out: Viability of MRC-5 cells (% of viable cells ± SD). The data set is classed as cell-based. As to the method:
MRC-5 human fibroblasts (ECACC) were cultured in MEME, Minimum Essential Medium Eagle (Merck) supplemented with 10% fetal bovine serum (Merck), 2 mM l-glutamine, antibiotics (100 U/mL penicillin, 100 μg/mL streptomycin, Merck) and 1% non-essential amino acids (Merck). Cells were grown in 75 cm^2 cell culture flasks (Sarstedt) in a humidified atmosphere of CO2/air (5/95%) at 37 °C. MTT-based viability assay was conducted as described previously. Optical densities were measured at 570 nm using a BioTek microplate reader. All measurements were carried out in three replicates, and the results were expressed as a percent of viable cells versus control cells.

In data set [10] the test system is P. aeruginosa MUW 700 cAmpC-positive. As to the kind of experiment: combination disc test CDT-AmpC. Conditions: Pseudomonas aeruginosa; ceftazidime 30 µg per disc, 6 mm disc; read-out: Diameter of inhibition zone, CAZ-30 disc without agent. The data set is classed as cell-based.
The test system of data set [11] is E. coli 77 CMY-2-positive. The data set can be described thus: combination disc test CDT-AmpC. The data set is classed as cell-based. The following applies: Escherichia coli; ceftazidime 30 µg per disc, 6 mm disc; read-out: Diameter of inhibition zone, CAZ-30 disc without agent.
The test system of data set [12] is K. pneumoniae ATCC 700603 ESBL-positive. As to the kind of experiment: combination disc test CDT-ESBL. It counts as cell-based. Conditions: Klebsiella pneumoniae, ATCC700603; ceftazidime 30 µg per disc, 6 mm disc; read-out: Diameter of inhibition zone, CAZ-30 disc without agent.
Data set [13] has as its system E. coli 77 CMY-2-positive. As to the kind of experiment: checkerboard microdilution, antibiotic plus tested agent. It counts as cell-based, Escherichia coli. The following applies: Escherichia coli; read-out: MIC of ceftazidime alone. As to the method: as §1, §2
The subject of data set [14] is P. aeruginosa MUW 700 cAmpC-positive. The data set is described as above. It counts as cell-based, Pseudomonas aeruginosa. Conditions: Pseudomonas aeruginosa; read-out: MIC of ceftazidime alone. Here is the method: as §1, §2
Setting [15] is: 0.4 mg per disc, 9 mm disc (fluconazole 0.025 mg, 6 mm disc), - no zone, read-out: Diameter of inhibition zone.

Turning to `C[C@@H](O)[C@H]1C(=O)N2C(C(=O)O)=C(SCCN=CN)C[C@H]12` [IMI, imipenem, reference compound], the MIC in [1] was determined as 128 µg/mL; in data set [2], 8 µg/mL; in data set [3] it was 8 µg/mL; in [4] it was 16 µg/mL.

Turning to `OB(O)c1c(F)c(F)c(B(O)O)c(F)c1F` [1g], the MIC (against E. faecalis ATCC 29212; in the data set on E. faecium ATCC 6057; in data set [5]; against S. aureus ATCC 6538P; in data set [6]; in data set [7]) was over 400 µg/mL in each case. Moreover, the minimal inhibitory concentration (MIC) in data set [8] is over 400 µg/mL; against C. krusei ATCC 6258, 400 µg/mL (≈ 1680 µM); with C. albicans ATCC 90028, over 400 µg/mL; in the data set with C. tropicalis ATCC 750 it was over 400 µg/mL; in the data set on C. tropicalis IBA 171, over 400 µg/mL; against S. cerevisiae ATCC 9763 it was over 400 µg/mL. Moreover, in data set [9], the viability at 72 h, 12.5 mg/L is 104 ± 8.2%. In [9], the viability at 72 h, 25 mg/L turned out to be 107 ± 9.2%. Besides, the viability at 72 h, 50 mg/L in data set [9] was 98.7 ± 5.8%.

For `COc1cc(B(O)O)c(OC)cc1B(O)O` [1l], in data set [9], the viability at 72 h, 12.5 mg/L stood at 110 ± 1.6%; the viability at 72 h, 25 mg/L was 114 ± 1.8%; the viability at 72 h, 50 mg/L was found to be 105 ± 7.8%.

Regarding `CC(C)(O/N=C(\C(=O)N[C@@H]1C(=O)N2C(C(=O)[O-])=C(C[n+]3ccccc3)CS[C@H]12)c1csc(N)n1)C(=O)O` [CAZ, ceftazidime, reference compound], the values for the zone of inhibition at 30 µg/disc in [10], in data set [11] and in data set [12] were 11 mm, 13 mm and 14 mm, respectively. Moreover, the MIC came out at 64 µg/mL in [13] and 128 µg/mL in [14].

On to `OC(Cn1cncn1)(Cn1cncn1)c1ccc(F)cc1F` [Fl, fluconazole, reference compound], for which the zone of inhibition at 0.4 mg/disc in data set [7] (setting [15]) was 32 mm; in data set [8] (setting [15]), 40 mm; in the data set with C. krusei ATCC 6258 (setting [15]) it was 16 mm; in the data set on C. albicans ATCC 90028 (setting [15]), 43 mm; in the data set with C. tropicalis ATCC 750 (setting [15]), 40 mm; with C. tropicalis IBA 171 (setting [15]) it was 39 mm. Moreover, the zone of inhibition at 0.4 mg/disc in the data set with S. cerevisiae ATCC 9763 (setting [15]) came to 12 mm. Also, the MIC is 2 µg/mL (≈ 6.53 µM) in data set [7]; 0.75 µg/mL (≈ 2.45 µM) in [8]; 64 µg/mL (≈ 209 µM) against C. krusei ATCC 6258; 1 µg/mL (≈ 3.27 µM) with C. albicans ATCC 90028; 0.38 µg/mL (≈ 1.24 µM) in the data set with C. tropicalis ATCC 750; 0.38 µg/mL (≈ 1.24 µM) in the data set on C. tropicalis IBA 171. Moreover, in the data set with S. cerevisiae ATCC 9763, it took 16 µg/mL (≈ 52.2 µM) to inhibit growth (MIC).

Turning to `OB(O)c1ccc(B(O)O)s1` [5b], the MIC against E. faecalis ATCC 29212 is 200 µg/mL (≈ 1160 µM); against E. faecium ATCC 6057, over 400 µg/mL; in [5], over 400 µg/mL; against S. aureus ATCC 6538P, over 400 µg/mL; in data set [6] it was over 400 µg/mL; in data set [7] it was over 400 µg/mL. Further, the MIC in data set [8] was over 400 µg/mL; in the data set on C. krusei ATCC 6258 it was 400 µg/mL (≈ 2330 µM); against C. albicans ATCC 90028, 400 µg/mL (≈ 2330 µM); against C. tropicalis ATCC 750, over 400 µg/mL; in the data set on C. tropicalis IBA 171 it was over 400 µg/mL; with S. cerevisiae ATCC 9763, over 400 µg/mL. The viability at 72 h, 12.5 mg/L in data set [9] amounted to 101 ± 7.7%. Besides, the viability at 72 h, 25 mg/L in data set [9] worked out at 110 ± 2.7%. Also, the viability at 72 h, 50 mg/L in data set [9] turned out to be 87.3 ± 13.6%.

`Cl.OB(O)c1cncc(B(O)O)c1` [6a, pyridine-3,5-diboronic acid hydrochloride]: the minimum inhibitory concentration (MIC) against E. faecalis ATCC 29212 is over 400 µg/mL; against E. faecium ATCC 6057 it was 400 µg/mL; in data set [5], 400 µg/mL; with S. aureus ATCC 6538P, 50 µg/mL; in data set [6] it was 400 µg/mL; in [7] it was over 400 µg/mL. The minimum inhibitory concentration (MIC) (in data set [8]; against C. krusei ATCC 6258; in the data set on C. albicans ATCC 90028; in the data set on C. tropicalis ATCC 750; against C. tropicalis IBA 171; against S. cerevisiae ATCC 9763) was over 400 µg/mL in each case. Also, in data set [9], the viability at 72 h, 12.5 mg/L came out at 138 ± 3.6%. Besides, in [9], the viability at 72 h, 25 mg/L stood at 133.5 ± 0.7%. The viability at 72 h, 50 mg/L in [9] worked out at 127 ± 2.6%.
